Source: ChEMBL document CHEMBL1268861, “Isolation and characterization of diastereomers of discorhabdins H and K and assignment of absolute configuration to discorhabdins D, N, Q, S, T, and U” (J Nat Prod, 2010)

Each molecule was assayed on P388 (assay: Cytotoxicity against mouse P388 cells).
Type: functional, cell-based
Cn1cnc(S[C@H]2[C@H]3C(=O)C=C4S[C@H]5C[C@]42C2=C(N5)C(=O)c4[nH]cc5c4C2=[N+]3CC5)c1C[C@H](N)C(=O)O [DISCORHABDIN H] gave an IC50 of over 8.2 µM. Work on Cn1cnc(S[C@@H]2[C@@H]3C(=O)C=C4S[C@@H]5C[C@@]42C2=C(N5)C(=O)c4[nH]cc5c4C2=[N+]3CC5)c1C[C@H](N)C(=O)O [DISCORHABDIN H2] yielded an IC50 of over 8.2 µM. Cn1cnc(SC2=CC(=O)C=C3S[C@@H]4C[C@]23C2=C(N4)C(=O)c3[nH]cc4c3C2=NCC4)c1C[C@H](N)C(=O)O [DISCORHABDIN K2] showed an IC50 of over 8.2 µM. For Cn1cnc(SC2=CC(=O)C=C3S[C@H]4C[C@@]23C2=C(N4)C(=O)c3[nH]cc4c3C2=NCC4)c1C[C@H](N)C(=O)O [DISCORHABDIN K], the IC50 was over 8.2 µM.
